Laboratory results reported in patent publication US11460474B2, “Marker for statin treatment stratification in heart failure” (Roche Diagnostics Operations, Inc., priority 2013, dated 2022).

Experiments:
[1] = tested on: patient with heart failure; assay: Case examples: statin therapy started after biomarker determination in heart failure patients; details: person
Description: PlGF is determined in a plasma sample obtained from the patient. The PlGF value is above 22 pg/mL. The physician prescribes atorvastatin 20 mg/d and closely monitors creatine kinase to exclude myopathy.

[2] = tested on: patients with CHF; details: rosuvastatin 10 mg daily, CORONA and GISSI-HF trials; cited from earlier work

Compound: CC(C)c1c(C(=O)Nc2ccccc2)c(-c2ccccc2)c(-c2ccc(F)cc2)n1CC[C@@H](O)C[C@@H](O)CC(=O)O [atorvastatin, Atorvastatin]
- outcome (death or hospitalization) ([1]; NYHA class III heart failure, prior myocardial infarction, PlGF above 22 pg/mL, atorvastatin 20 mg/d, next 1.5 years): remains stable with a good outcome
- outcome (death or hospitalization) ([1]; class C heart failure, no CAD, GDF-15 above 3800 pg/mL, atorvastatin 10 mg/d, next 16 months): remains stable with a good outcome

Compound: CC(C)c1nc(N(C)S(C)(=O)=O)nc(-c2ccc(F)cc2)c1/C=C/[C@@H](O)C[C@@H](O)CC(=O)O [rosuvastatin, Rosuvastatin]
- effect of statin treatment on primary end point [2]: failed to demonstrate a beneficial effect
